Assays:
MCL1 = MCL1 (Homo sapiens, UniProt Q07820); test: MCL1 affinity assay (competition binding, qPCR readout); settings: recombinant MCL1, 11-point 3-fold dilution series
Experimental: Recombinant MCL1, BCL2 and BCXL proteins were prepared in either an E. coli host derived from the BL21 strain or in HEK-293 cells. The recombinant proteins were subsequently tagged with DNA for qPCR detection. Streptavidin-coated magnetic beads were treated for 30 minutes at room temperature with the respective biotinylated peptide ligands for each recombinant protein to generate affinity resins for the assays. The liganded beads were blocked with excess biotin and washed with blocking buffer (SeaBlock (Pierce), 1% BSA, 0.05% Tween 20, 1 mM DTT) to remove unbound ligand and to reduce nonspecific binding. Binding reactions were assembled by combining recombinant protein, liganded affinity beads, and test compounds in 1× binding buffer (20% SeaBlock, 0.17×PBS, 0.05% Tween 20, 6 mM DTT). Test compounds were prepared as 111X stocks in 100% DMSO. The compounds were then diluted directly into the assays such that the final concentration of DMSO was 0.9%. The assay plates were incubated at room temperature with shaking for 1 hour and the affinity beads were washed with wash buffer (1×PBS, 0.05% Tween 20). The beads were then re-suspended in elution buffer (1×PBS, 0.05% Tween 20, 0.5 μM non-biotinylated affinity ligand) and incubated at room temperature with shaking for 30 minutes. The recombinant protein concentration in the eluates was measured by qPCR. Kds were determined using an 11-point 3-fold compound dilution series with three DMSO control points.

[1] = system: drug-sensitive cell lines of Table 3; test: Cell line growth retardation assay, sensitive cohort; format: cell-based, Human; settings: for IC50: Homo sapiens, 144 h, arithmetic mean of IC50s over the sensitive cohort of Table 3, 6 days growth, read-out: AvgSen IC50; for Fold Diff: average IC50 of resistant cohort divided by average IC50 of sensitive cohort
Experimental: (§1) Cells were seeded at densities of 1,000-5,000 cells per well in 48-well tissue culture plates. After a 24 h rest period, cells were treated with compound at 10 μM, 1 μM, […], 0.08 μM, 0.016 μM, and 0.0032 μM. A group of cells were treated with the vehicle in which the compound was prepared and served as a control. Prior to treatment, cells were counted and this count was used as a baseline for the calculation of growth inhibition. The cells were grown in the presence of compounds for 6 days and were counted on day 6. All cell counting was performed using a Synentec Cellavista plate imager. Growth inhibition was calculated as a ratio of cell population doublings in the presence of compound versus the absence of compound. […] IC50 values for each compound were calculated by fitting curves to data points from each dose-response assay using the Proc NLIN function in SAS for Windows version 9.2 (SAS Institute, Inc.).
(§2) Human cancer cell lines were grouped as “sensitive” or “resistant” to MCL1 inhibition based on whether their growth was retarded by AMG-176 (i.e., (1′S,11R,12S,14E,16S,16aR,18aR)-6′-Chloro-3′,4′,12,13,16,16a,17,18,18a,19-decahydro-16-methoxy-11,12-dimethyl-,Spiro[5,7-etheno-1H,11H-cyclobut[i][1,4]oxazepino[3,4-f][1,2,7]thiadiazacyclohexadecine-2(3H),1′(2′H)-naphthalen]-8(9H)-one 10,10-dioxide) or MIK665 (i.e., (R)-2-((5-(3-chloro-2-methyl-4-(2-(4-methylpiperazin-1-yl)ethoxy)phenyl)-6-(4-fluorophenyl)thieno[2,3-d]pyrimidin-4-yl)oxy)-3-(2-((2-(2-methoxyphenyl)pyrimidin-4-yl)methoxy)phenyl)propanoic acid) (data not shown; see Table 3). These sensitive and resistant cohorts were interrogated for response to each compound, and IC50S were calculated for each cell line using the same technique described above. Average IC50S for the sensitive (“AvgSen IC50”) and resistant (“AvgRes IC50”) cohorts were calculated as arithmetic means of the group, and fold differences (“Fold Diff”) between the resistant and sensitive cohorts were calculated by diving the average IC50 for the resistant cohort by the average IC50 for the sensitive cohort. “A” represents an IC50 of 1 μM or less, “B” represents an IC50 of greater than 1 μM to 5 μM, “C” represents an IC50 of greater than 5 μM, “+” represents a fold difference of 10 or more, and “−” represents a fold difference less than 10.

[2] = system: drug-resistant cell lines of Table 3; test: Cell line growth retardation assay, resistant cohort; format: cell-based, Human; settings: Homo sapiens, 144 h; arithmetic mean of IC50s over the resistant cohort of Table 3, 6 days growth; read-out: AvgRes IC50
Experimental: as §1, §2

Chain of MCL1 (Q07820 whole entry): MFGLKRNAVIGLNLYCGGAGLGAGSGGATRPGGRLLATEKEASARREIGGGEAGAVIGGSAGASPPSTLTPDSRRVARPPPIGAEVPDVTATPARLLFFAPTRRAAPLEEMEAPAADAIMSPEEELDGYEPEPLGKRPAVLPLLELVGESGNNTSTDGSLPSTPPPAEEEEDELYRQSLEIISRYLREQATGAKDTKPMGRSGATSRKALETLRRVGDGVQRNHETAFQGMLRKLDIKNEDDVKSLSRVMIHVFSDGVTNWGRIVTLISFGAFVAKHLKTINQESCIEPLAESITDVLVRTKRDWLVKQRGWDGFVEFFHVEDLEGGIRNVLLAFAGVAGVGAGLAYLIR

| SMILES | Kd (MCL1) | IC50 [1] | Fold Diff [1] | IC50 [2] |
| --- | --- | --- | --- | --- |
| COc1ccccc1-c1nccc(COc2ccccc2C[C@@H](Oc2nsc3cnc(-c4cnn(CC5CCC5)c4)c(-c4ccc(OCCN5CCN(C)CC5)c(Cl)c4C)c23)C(=O)O)n1 (atropisomer, axis not shown) [Compound 90] | 101 to 500 nM | 1000 to 5000 nM | − (“−” represents a fold difference less than 10) | > 5000 nM |
| Cc1c(-c2c(C3CCC3)ncc3snc(O[C@H](Cc4ccccc4OCc4ccnc(C5CC5)n4)C(=O)O)c23)ccc(OCCN2CCN(C)CC2)c1Cl (atropisomer, axis not shown) [Compound 109] | 101 to 500 nM | 1000 to 5000 nM | − (“−” represents a fold difference less than 10) | > 5000 nM |
| Cc1c(-c2c(N3CC4(COC4)C3)ncc3snc(O[C@H](Cc4ccccc4OCc4ccnn4CC(F)(F)F)C(=O)O)c23)ccc(OCCN2CCN(C)CC2)c1Cl (atropisomer, axis not shown) [Compound 91] | > 1500 nM | > 5000 nM | − (“−” represents a fold difference less than 10) | > 5000 nM |
| COc1ccccc1-c1nccc(COc2ccccc2C[C@@H](Oc2nsc3cnc(-c4ccc(F)cc4C)c(-c4ccc(OCCN5CCN(C)CC5)c(Cl)c4C)c23)C(=O)O)n1 (atropisomer, axis not shown) [Compound 86] | 501 to 1500 nM | 1000 to 5000 nM | − (“−” represents a fold difference less than 10) | > 5000 nM |
| COc1cccc(Oc2ccc(-c3nccc(COc4ccccc4C[C@@H](Oc4nsc5cnc(C6CCC6)c(-c6ccc(OCCN7CCN(C)CC7)c(Cl)c6C)c45)C(=O)O)n3)cn2)c1 (atropisomer, axis not shown) [Compound 114] | 101 to 500 nM | 1000 to 5000 nM | − (“−” represents a fold difference less than 10) | > 5000 nM |
| Cc1c(-c2cc(-c3nccc4cc(Cl)ccc34)cc3snc(O[C@H](Cc4ccccc4OCc4ccnn4CC(F)(F)F)C(=O)O)c23)ccc(OCCN2CCN(C)CC2)c1Cl [Compound 95] | > 1500 nM | > 5000 nM | − (“−” represents a fold difference less than 10) | > 5000 nM |
| COc1cc(-c2ncc3snc(O[C@H](Cc4ccccc4OCc4ccnc(-c5ccccc5OC)n4)C(=O)O)c3c2-c2ccc(OCCN3CCN(C)CC3)c(Cl)c2C)ccc1F (atropisomer, axis not shown) [Compound 37] | 101 to 500 nM | > 5000 nM | − (“−” represents a fold difference less than 10) | > 5000 nM |
| COc1cccc(-c2ncc3snc(O[C@H](Cc4ccccc4OCc4ccnc(N5CCCC(F)(F)C5)n4)C(=O)O)c3c2-c2ccc(OCCN3CCN(C)CC3)c(Cl)c2C)c1 (atropisomer, axis not shown) [Compound 61] | 101 to 500 nM | ≤ 1000 nM | + (“+” represents a fold difference of 10 or more) | > 5000 nM |
| Cc1c(Cl)c2cc(Cl)cnc2n1-c1cc(CC2CCC2)c2c(O[C@H](Cc3ccccc3OCc3ccnn3CC(F)(F)F)C(=O)O)nsc2c1 [Compound 101] | > 1500 nM | > 5000 nM | − (“−” represents a fold difference less than 10) | > 5000 nM |
| COc1ccccc1-c1nccc(COc2ccccc2C[C@@H](Oc2nsc3cnc(-c4cccc(C#N)c4)c(-c4ccc(OCCN5CCN(C)CC5)c(Cl)c4C)c23)C(=O)O)n1 (atropisomer, axis not shown) [Compound 80] | ≤ 100 nM | ≤ 1000 nM | + (“+” represents a fold difference of 10 or more) | > 5000 nM |
| COc1ccccc1-c1nccc(COc2ccccc2C[C@@H](Oc2nsc3cnc(-c4ccc(F)c(F)c4)c(-c4ccc(OCCN5CCN(C)CC5)c(Cl)c4C)c23)C(=O)O)n1 (atropisomer, axis not shown) [Compound 85] | ≤ 100 nM | ≤ 1000 nM | + (“+” represents a fold difference of 10 or more) | > 5000 nM |
| Cc1c(-c2cc(-c3nn(C)c4cc(Cl)ccc34)cc3snc(O[C@H](Cc4ccccc4OCc4ccnn4CC(F)(F)F)C(=O)O)c23)ccc(OCCN2CCN(C)CC2)c1Cl [Compound 94] | > 1500 nM | > 5000 nM | − (“−” represents a fold difference less than 10) | > 5000 nM |
| Cc1c(-c2c(-c3cccc(F)c3)ncc3snc(O[C@H](Cc4ccccc4OCc4ccnc(OCC(F)(F)F)n4)C(=O)O)c23)ccc(OCCN2CCN(C)CC2)c1Cl (atropisomer, axis not shown) [Compound 69] | ≤ 100 nM | ≤ 1000 nM | + (“+” represents a fold difference of 10 or more) | > 5000 nM |

The next lines start with results.

| Kd (MCL1) | SMILES | IC50 [1] | Fold Diff [1] | IC50 [2] |
| --- | --- | --- | --- | --- |
| ≤ 100 nM | COc1ccccc1-c1nccc(COc2ccccc2C[C@@H](Oc2nsc3cnc(-c4ccc(F)c(Cl)c4)c(-c4ccc(OCCN5CCN(C)CC5)c(Cl)c4C)c23)C(=O)O)n1 (atropisomer, axis not shown) [Compound 88] | ≤ 1000 nM | + (“+” represents a fold difference of 10 or more) | > 5000 nM |
| ≤ 100 nM | COc1ccccc1-c1nccc(COc2ccccc2C[C@@H](Oc2nsc3cnc(-c4cccc(F)c4)c(-c4ccc(OCCC5CCN(C)CC5)c(Cl)c4C)c23)C(=O)O)n1 (atropisomer, axis not shown) [Compound 102] | 1000 to 5000 nM | − (“−” represents a fold difference less than 10) | > 5000 nM |
| ≤ 100 nM | CC(=O)N1CCN(c2ccc(-c3nccc(COc4ccccc4C[C@@H](Oc4nsc5cnc(C6CCC6)c(-c6ccc(OCCN7CCN(C)CC7)c(Cl)c6C)c45)C(=O)O)n3)cc2)CC1 (atropisomer, axis not shown) [Compound 119] | ≤ 1000 nM | + (“+” represents a fold difference of 10 or more) | > 5000 nM |
| ≤ 100 nM | COc1ccc(F)cc1-c1nccc(COc2ccccc2C[C@@H](Oc2nsc3cnc(C4CCC4)c(-c4ccc(OCCN5CCN(C)CC5)c(Cl)c4C)c23)C(=O)O)n1 (atropisomer, axis not shown) [Compound 73] | ≤ 1000 nM | + (“+” represents a fold difference of 10 or more) | > 5000 nM |
| ≤ 100 nM | COc1ccccc1-c1nccc(COc2ccccc2C[C@@H](Oc2nsc3cnc(-c4cnc(C5CC5)o4)c(-c4ccc(OCCN5CCN(C)CC5)c(Cl)c4C)c23)C(=O)O)n1 (atropisomer, axis not shown) [Compound 78] | 1000 to 5000 nM | − (“−” represents a fold difference less than 10) | > 5000 nM |
| ≤ 100 nM | COCc1ccccc1-c1nccc(COc2ccccc2C[C@@H](Oc2nsc3cnc(-c4cccc(OC)c4)c(-c4ccc(OCCN5CCN(C)CC5)c(Cl)c4C)c23)C(=O)O)n1 (atropisomer, axis not shown) [Compound 65] | ≤ 1000 nM | + (“+” represents a fold difference of 10 or more) | > 5000 nM |
| ≤ 100 nM | COc1cccc(-c2ncc3snc(O[C@H](Cc4ccccc4OCc4ccnc(OCC(F)F)n4)C(=O)O)c3c2-c2ccc(OCCN3CCN(C)CC3)c(Cl)c2C)c1 [Compound 58] | ≤ 1000 nM | + (“+” represents a fold difference of 10 or more) | > 5000 nM |

— patent US20230116602A1, “MCL1 INHIBITORS AND USES THEREOF” (California Institute of Technology, priority 2019, published 2023)
